Results: ChEMBL document CHEMBL5385976, “Recognition of arylmethylidene derivatives of imidazothiazolotriazinones as novel tubulin polymerization inhibitors” (RSC Med Chem, 2024)

Tests used:
Format in all cases: functional
K562 [1] = assay: Anticancer activity against human K562 cells assessed as cell growth at 10 umol/L incubated for 48 hrs by SRB assay relative to control; conditions: K562, 48 h, dose 10 µmol/L, read-out: Activity
MOLT-4 = assay: Anticancer activity against human MOLT-4 cells assessed as cell growth at 10 umol/L incubated for 48 hrs by SRB assay relative to control; conditions: MOLT-4, 48 h, dose 10 µmol/L, read-out: Activity
EKVX = assay: Anticancer activity against human EKVX cells assessed as cell growth at 10 umol/L incubated for 48 hrs by SRB assay relative to control; conditions: dose 10 µmol/L, read-out: Activity
NCI-H226 = assay: Anticancer activity against human NCI-H226 cells assessed as cell growth at 10 umol/L incubated for 48 hrs by SRB assay relative to control; conditions: NCI-H226, 48 h, dose 10 µmol/L, read-out: Activity
NCI-H322M = assay: Anticancer activity against human NCI-H322M cells assessed as cell growth at 10 umol/L incubated for 48 hrs by SRB assay relative to control; conditions: dose 10 µmol/L, read-out: Activity
COLO 205 = assay: Anticancer activity against human COLO 205 cells assessed as cell growth at 10 umol/L incubated for 48 hrs by SRB assay relative to control; conditions: COLO 205, 48 h, dose 10 µmol/L, read-out: Activity
HCT-15 = assay: Anticancer activity against human HCT-15 cells assessed as cell growth at 10 umol/L incubated for 48 hrs by SRB assay relative to control; conditions: HCT-15, 48 h, dose 10 µmol/L, read-out: Activity
KM12 = assay: Anticancer activity against human KM12 cells assessed as cell growth at 10 umol/L incubated for 48 hrs by SRB assay relative to control; conditions: KM12, 48 h, dose 10 µmol/L, read-out: Activity
SF-268 = assay: Anticancer activity against human SF-268 cells assessed as cell growth at 10 umol/L incubated for 48 hrs by SRB assay relative to control; conditions: SF-268, 48 h, dose 10 µmol/L, read-out: Activity
SF-295 = assay: Anticancer activity against human SF-295 cells assessed as cell growth at 10 umol/L incubated for 48 hrs by SRB assay relative to control; conditions: SF-295, 48 h, dose 10 µmol/L, read-out: Activity
MDA-MB-435 = assay: Anticancer activity against human MDA-MB-435 cells assessed as cell growth at 10 umol/L incubated for 48 hrs by SRB assay relative to control; conditions: MDA-MB-435, 48 h, dose 10 µmol/L, read-out: Activity
SK-MEL-5 = assay: Anticancer activity against human SK-MEL-5 cells assessed as cell growth at 10 umol/L incubated for 48 hrs by SRB assay relative to control; conditions: SK-MEL-5, 48 h, dose 10 µmol/L, read-out: Activity
UACC-62 = assay: Anticancer activity against human UACC-62 cells assessed as cell growth at 10 umol/L incubated for 48 hrs by SRB assay relative to control; conditions: UACC-62, 48 h, dose 10 µmol/L, read-out: Activity
IGROV-1 = assay: Anticancer activity against human IGROV-1 cells assessed as cell growth at 10 umol/L incubated for 48 hrs by SRB assay relative to control; conditions: IGROV-1, 48 h, dose 10 µmol/L, read-out: Activity
OVCAR-5 = assay: Anticancer activity against human OVCAR-5 cells assessed as cell growth at 10 umol/L incubated for 48 hrs by SRB assay relative to control; conditions: OVCAR-5, 48 h, dose 10 µmol/L, read-out: Activity
NCI/ADR-RES = assay: Anticancer activity against human NCI-ADR-RES cells assessed as cell growth at 10 umol/L incubated for 48 hrs by SRB assay relative to control; conditions: dose 10 µmol/L, read-out: Activity
SK-OV-3 = assay: Anticancer activity against human SK-OV-3 cells assessed as cell growth at 10 umol/L incubated for 48 hrs by SRB assay relative to control; conditions: SK-OV-3, 48 h, dose 10 µmol/L, read-out: Activity
ACHN = assay: Anticancer activity against human ACHN cells assessed as cell growth at 10 umol/L incubated for 48 hrs by SRB assay relative to control; conditions: dose 10 µmol/L, read-out: Activity
CAKI-1 = assay: Anticancer activity against human CAKI-1 cells assessed as cell growth at 10 umol/L incubated for 48 hrs by SRB assay relative to control; conditions: CAKI-1, 48 h, dose 10 µmol/L, read-out: Activity
RXF 393 = assay: Anticancer activity against human RXF 393 cells assessed as cell growth at 10 umol/L incubated for 48 hrs by SRB assay relative to control; conditions: RXF 393, 48 h, dose 10 µmol/L, read-out: Activity
PC-3 = assay: Anticancer activity against human PC-3 cells assessed as cell growth at 10 umol/L incubated for 48 hrs by SRB assay relative to control; conditions: PC-3, 48 h, dose 10 µmol/L, read-out: Activity
DU-145 = assay: Anticancer activity against human DU-145 cells assessed as cell growth at 10 umol/L incubated for 48 hrs by SRB assay relative to control; conditions: DU-145, 48 h, dose 10 µmol/L, read-out: Activity
MCF7 = assay: Anticancer activity against human MCF7 cells assessed as cell growth at 10 umol/L incubated for 48 hrs by SRB assay relative to control; conditions: MCF7, 48 h, dose 10 µmol/L, read-out: Activity
MDA-MB-231 = assay: Anticancer activity against human MDA-MB-231 cells assessed as cell growth at 10 umol/L incubated for 48 hrs by SRB assay relative to control; conditions: MDA-MB-231, 48 h, dose 10 µmol/L, read-out: Activity
Hs-578T = assay: Anticancer activity against human Hs-578T cells assessed as cell growth at 10 umol/L incubated for 48 hrs by SRB assay relative to control; conditions: dose 10 µmol/L, read-out: Activity
MDA-MB-468 = assay: Anticancer activity against human MDA-MB-468 cells assessed as cell growth at 10 umol/L incubated for 48 hrs by SRB assay relative to control; conditions: MDA-MB-468, 48 h, dose 10 µmol/L, read-out: Activity
[2] = system: Panel NCI-60 (60 carcinoma cell lines); assay: Antiproliferative activity against human panel NCI-60 (60 carcinoma cell lines) assessed as mean cell growth at 10 umol/L incubated for 48 hrs by SRB assay relative to control; conditions: dose 10 µmol/L, at 10 µM
K562 [3] = assay: Induction of apoptosis in human K562 cells at 0.5 uM incubated for 3 days by RNase/PI staining based flow cytometry (reference value: 1.4 %); conditions: time 3 day
K562 [4] = assay: Induction of cell cycle arrest in human K562 cells at G1 phase at 0.5 uM incubated for 3 days by RNase/PI staining based flow cytometry (reference value: 50 %); conditions: time 3 day
K562 [5] = assay: Induction of cell cycle arrest in human K562 cells at S phase at 0.5 uM incubated for 3 days by RNase/PI staining based flow cytometry (reference value: 16 %); conditions: time 3 day
K562 [6] = assay: Induction of cell cycle arrest in human K562 cells at G2/M phase at 0.5 uM incubated for 3 days by RNase/PI staining based flow cytometry (reference value: 31 %); conditions: time 3 day

Row | SMILES | growth at 10 µM (K562 [1]) [%] | growth at 10 µM (MOLT-4) [%] | growth at 10 µM (EKVX) [%] | growth at 10 µM (NCI-H226) [%] | growth at 10 µM (NCI-H322M) [%] | growth at 10 µM (COLO 205) [%] | growth at 10 µM (HCT-15) [%] | growth at 10 µM (KM12) [%] | growth at 10 µM (SF-268) [%] | growth at 10 µM (SF-295) [%] | growth at 10 µM (MDA-MB-435) [%] | growth at 10 µM (SK-MEL-5) [%] | growth at 10 µM (UACC-62) [%] | growth at 10 µM (IGROV-1) [%] | growth at 10 µM (OVCAR-5) [%] | growth at 10 µM (NCI/ADR-RES) [%] | growth at 10 µM (SK-OV-3) [%] | growth at 10 µM (ACHN) [%] | growth at 10 µM (CAKI-1) [%] | growth at 10 µM (RXF 393) [%] | further results
1 | CCN1C(=O)N(CC)C2C1NN=c1s/c(=C\c3ccc(Cl)cc3Cl)c(=O)n12 (configuration not stated) | 83.7 | 12.9 | 50.1 | 48.8 | 42.4 | -7.9 | 9.5 | 7.5 | 42.3 | -12.6 | -24.8 | 66.1 | 28.9 | -43.3 | 28.2 | 5.7 | 29.2 | 26.7 | 21.1 | 61.1 | growth at 10 µM (PC-3): 24.6%; growth at 10 µM (DU-145): 6%; growth at 10 µM (MCF7): 14%; growth at 10 µM (MDA-MB-231): 12.4%; growth at 10 µM (Hs-578T): 15.8%; growth at 10 µM (MDA-MB-468): 5.4%; Activity [2]: 18.2%; Activity (K562 [3]): 5%; Activity (K562 [4]): 13%; Activity (K562 [5]): 14%; Activity (K562 [6]): 65%
2 | COc1cc2c(c(OC)c1OC)-c1ccc(OC)c(=O)cc1[C@@H](NC(C)=O)CC2 [COLCHICINE] | -25.7 | 6.7 | 35.8 | 31 | 36.1 | -47.6 | -16.8 | 3.7 | 35.1 | -10.6 | -50.8 | 30.7 | 19.1 | -49 | 31.2 | -20.9 | 36.1 | 30.5 | 20.3 | 15.3 | growth at 10 µM (PC-3): -28.6%; growth at 10 µM (DU-145): 7.6%; growth at 10 µM (MCF7): -9.6%; growth at 10 µM (MDA-MB-231): 11.7%; growth at 10 µM (Hs-578T): -7.1%; growth at 10 µM (MDA-MB-468): 70.5%; Activity [2]: 8.4%; Activity (K562 [3]): 3.1%; Activity (K562 [4]): 18%; Activity (K562 [5]): 19%; Activity (K562 [6]): 56%
